Experimental data reported in PMC12073298, “Design, Synthesis, and Biological Evaluation of Naphthoquinone Salts as Anticancer Agents” (Molecules, 2025).

How the values were obtained:
[1] = system: human endometrial cancer cells (HEC1A); settings: hit compound, earlier work; cited from earlier work
[2] = system: human endometrial cancer cells (HEC1A); experiment: MTT cell viability assay, HEC1A cells; type: cell-based
Method: (§1) The cytotoxic effects of the synthesized salt compounds were assessed against human endometrial cancer cells (HEC1A) and normal endometrial stromal cells (MAD11) using the MTT cell viability assay. BH10 was used as the reference compound.
(§2) Reagents and equipment: phosphate-buffered saline (PBS) (Sigma Aldrich, St. Louis, MO, USA), 10× Trypsin-EDTA solution (Sigma Aldrich, 59418C), Dulbecco’s Modified Eagle’s Medium (Sigma Aldrich), foetal bovine serum (FBS), and 100× penicillin-streptomycin solution (Sigma Aldrich P4333). The MTT reagent was prepared by dissolving 5 mg/mL MTT powder in sterile PBS, followed by filtration, whereas the MTT solvent contained 4 mM HCl and 0.1% Nonidet P-40 in isopropanol. Dimethyl sulfoxide (DMSO) was also sourced from Sigma Aldrich. Absorbance measurements were acquired using Kaleido 1.0 software coupled with an EnSight™ HH3400 Multimode Plate Reader (PerkinElmer, Waltham, MA, USA). HEC-1-A endometrial cancer cells were obtained from ATCC, while MAD11 endometrial stromal cells were provided by Dr. Hui Li (University of Virginia). MAD11 cells, derived from non-cancerous donors, were immortalized via human telomerase reverse transcriptase (hTERT).
(§3) Method: The methods were adapted from Byrne et al. (2014). Cells were cultured in DMEM supplemented with 10% FBS and 1% Pen-Strep solution (100 U/mL penicillin and 0.1 mg/mL streptomycin). Upon reaching ~70% confluence, the cells were washed with sterile PBS and detached using a 1× trypsin-EDTA solution. The cells were then resuspended in culture media, counted, and seeded into sterile 96-well tissue culture plates (2500 cells per well for MAD11; 5000 cells per well for HEC-1-A). The cells were incubated at 37 °C with 5% CO2 for 24 h prior to drug treatment. Drugs were serially diluted in culture medium to final concentrations of 100, 50, 25, 12.5, 6.3, 3.1, 1.6, and 0.8 µM per well and applied in triplicate. For compounds 7a–f and 15, as their IC₅₀ values were below 0.8 µM, an additional set of three biological replicates was conducted using a lower concentration range (500, 250, 125, 63, 31, 16, 8, and 4 nM). To minimize variations due to DMSO (vehicle), both drug dilutions and control wells received the same final concentration of DMSO. After 48 h of incubation at 37 °C with 5% CO2, cell viability was assessed by adding 20 µL/well of MTT reagent for 3 h. Supernatants were aspirated, and formazan crystals were dissolved in MTT solvent before absorbance was measured at 590/620 nm using an EnSight™ HH3400 Multimode Plate Reader. Cell viability was expressed as a percentage of the vehicle (DMSO-treated) control, with results reported as mean ± SEM from three independent experiments. IC50 values were determined using GraphPad Prism 9.

[3] = system: normal endometrial stromal cells (MAD11); experiment: MTT cell viability assay, MAD11 cells; type: cell-based, human; settings: Homo sapiens, MAD11, 48 h, MAD11 non-cancerous cells, n = 3 biological replicates, read-out: Mean IC50 (μM) MAD11 ± SD
Method: as §1, §2, §3

[4] = system: Indoleamine 2,3-dioxygenase 1 (IDO1); parameters: method as in ref 9-10 (a number printed in a supplementary file, which may have a reference list of its own: not looked up in the article's list); settings: cited from earlier work
Hexokinase II = system: Hexokinase II; parameters: method as in ref 2-4 (a number printed in a supplementary file, which may have a reference list of its own: not looked up in the article's list); settings: cited from earlier work
GLUT1 = system: GLUT1; parameters: method as in ref 5-6 (a number printed in a supplementary file, which may have a reference list of its own: not looked up in the article's list); settings: cited from earlier work
[5] = system: Pyruvate Kinase M2 (PKM2); parameters: method as in ref 7-8 (a number printed in a supplementary file, which may have a reference list of its own: not looked up in the article's list); settings: cited from earlier work
[6] = system: Survivin suppression (indirect); parameters: method as in ref 13 (a number printed in a supplementary file, which may have a reference list of its own: not looked up in the article's list); settings: cited from earlier work
[7] = system: receptor-interacting protein kinase 2 (RIPK2); parameters: method as in ref 11-12 (a number printed in a supplementary file, which may have a reference list of its own: not looked up in the article's list); settings: cited from earlier work
[8] = reported target as listed, test system not given, read-out: IC50 (Table S1)

For `O=C1C(Cl)=C(NCCN2CCOCC2)C(=O)c2ccccc21` [BH10, reference compound], the “selective toxicity (IC50 value in non-cancerous cells/IC50 value of cancer cells)” value [1] is listed as 2.38, the IC50 ([2]; Homo sapiens, HEC-1-A, 48 h, HEC1A cells, MTT, 48 h, n = 3 biological replicates, read-out: Mean IC50 (μM) HEC1A ± SD) is listed as 11.8 ± 5.19 µM and the “Selectivity Ratio” value ([2]; IC50 value from MAD11 cells divided by the IC50 value from HEC1A cells) is listed as 2.38. For the same compound, the IC50 [3] was 28.2 ± 12.2 µM.

For `CC(C)=CCC1=C(O)C(=O)c2ccccc2C1=O` [Lapachol], the “Selectivity Notes (Table S1)” value ([4]; Table S1 comparison) is given as “Limited” and the IC50 [4, 8] is given as 25 µM.

For `O=C(O)c1nn(Cc2ccc(Cl)cc2Cl)c2ccccc12` [Lonidamine], the “Selectivity Notes (Table S1)” value (Hexokinase II; Table S1 comparison) is listed as “Low” and the IC50 (Hexokinase II; [8]) is listed as 170 µM.

In the case of `O=C(CCc1ccc(O)cc1)c1c(O)cc(O)cc1O` [Phloretin], the “Selectivity Notes (Table S1)” value (GLUT1; Table S1 comparison) is given as “Limited” and the IC50 (GLUT1; [8]) is given as ~2 µM.

For `CC(C)=CC[C@@H](O)C1=CC(=O)c2c(O)ccc(O)c2C1=O` [Shikonin], the “Selectivity Notes (Table S1)” value ([5]; Table S1 comparison) is given as “Low” and the IC50 [5, 8] is given as 19.9 µM.

In the case of `COCCn1c2c([n+](Cc3cnccn3)c1C)C(=O)c1ccccc1C2=O` [YM155], the “Selectivity Notes (Table S1)” value ([6]; Table S1 comparison) is listed as 18 and the IC50 [6, 8] is listed as 0.0137 µM.

In the case of `Cc1n(Cc2ccccc2)c2c([n+]1Cc1ccc(F)cc1)C(=O)c1ccccc1C2=O` [cRIPGBM], the “Selectivity Notes (Table S1)” value ([7]; Table S1 comparison) is listed as “Variable, brain-specific” and the IC50 [7, 8] is listed as 0.027 µM.
